Results reported in PMC2765569 (Biochemistry, 2009).

What was measured:
[1] = target: FTase (wild-type protein farnesyltransferase) (Rattus norvegicus, UniProt Q02293+Q04631); test: Single-turnover; assay type: biochemical; conditions: 800 nM FTase, 200 nM FPP, 25 μM peptide, 5 μM MDCC-PBP, 34 units mL^−1 PPiase, 50 mM HEPPSO pH 7.8, 5 mM TCEP, 5 mM MgCl2, 25 °C; for Single turnover rate constant kSTO, X=S: dansyl-GCVa2S panel
FTase = FTase (Rattus norvegicus, UniProt Q02293+Q04631); test: Radioactive assay of FTase-catalyzed farnesylation; assay type: biochemical; conditions: data not shown, farnesylated slowly
Chain of FTase (Q02293 whole entry, one chain of several): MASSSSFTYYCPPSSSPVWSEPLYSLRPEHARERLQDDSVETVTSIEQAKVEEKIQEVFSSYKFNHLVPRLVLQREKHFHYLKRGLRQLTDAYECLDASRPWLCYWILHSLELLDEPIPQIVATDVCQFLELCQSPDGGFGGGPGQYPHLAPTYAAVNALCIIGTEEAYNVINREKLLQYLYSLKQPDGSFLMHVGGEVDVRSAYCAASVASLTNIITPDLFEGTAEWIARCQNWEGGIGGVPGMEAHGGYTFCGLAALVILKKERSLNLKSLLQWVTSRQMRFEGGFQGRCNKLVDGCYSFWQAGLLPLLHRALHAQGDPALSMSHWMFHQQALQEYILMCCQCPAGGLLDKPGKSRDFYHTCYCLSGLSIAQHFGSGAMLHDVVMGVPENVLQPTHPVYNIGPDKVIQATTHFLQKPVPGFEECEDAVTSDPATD

| Single turnover rate constant kSTO, X=S [1] | Substance | also measured |
| --- | --- | --- |
|  | dansyl-GCVGM | Single turnover rate constant kSTO, X=M ([1]; dansyl-GCVa2M panel): 0.26 ± 0.01 s⁻¹ |
| 0.092 ± 0.004 s⁻¹ | dansyl-GCVGS |  |
| 3.8 ± 0.5 s⁻¹ | dansyl-GCVLS |  |
|  | dansyl-GCVRS | apparent value for kcat/KM (FTase): < 1000 M⁻¹ s⁻¹ |
